Test results published in patent publication US8362263B2 (CJ Cheiljedang Corporation, priority 2006, dated 2013).
Counter-ions that a name gives are not always drawn.

Key:
[1] = Thermal stability in solid state, acceleration test at 60° C. (HPLC content); type: physicochemical
Experimental: (§1) <HPLC Analysis Condition> • Detector: UV absorbance (at 237 nm), • Column: Octadecyl silica gel C18 (4.6 mm×150 mm, 5[…]), • mobile phase: Potassium dihydrogen phosphate monobasic (0.03 M): Methanol=4:6 (by volume) • Flow rate: 1.5 ml/min.

[2] = Thermal stability in liquid state (distilled water, 25° C., dark, 4 weeks); type: physicochemical; settings: dissolved in distilled water, 4 weeks at 25° C. in the dark
Experimental: as §1
The observation was made under the same conditions as in the HPLC analysis for evaluating the thermal stability of samples in a solid state.

[3] = Hygroscopicity test (K.F. water content under various humidity); type: physicochemical; settings: 25° C.; for hygroscopicity (in words): various humidity conditions
[4] = Photostability test (ICH photostable chamber, 25° C., 4 weeks, HPLC content); type: physicochemical; settings: 4 weeks at 25° C., light source
Experimental: as §1
An observation was made of content (HPLC) change under the same conditions as in the HPLC analysis for evaluating the thermal stability of samples.

physchem = settings: 25 °C

| content change in 60° C. acceleration test (in words) [1] | content change in liquid state (in words) [2] | water content (K.F. moisture %) ([3]; 25% RH, Post 1 Week) [%] | water content (K.F. moisture %) ([3]; 60% RH, Post 1 Week) [%] | water content (K.F. moisture %) ([3]; 75% RH, Post 1 Week) [%] | water content (K.F. moisture %) ([3]; 95% RH, Post 1 Week) [%] | water content (K.F. moisture %) ([3]; Initial) [%] | hygroscopicity (in words) [3] | appearance on light exposure [4] | solubility (physchem; pH 1.2, simulated gastric fluid) [mg/mL] | solubility (physchem; pH 4, aqueous buffer) [mg/mL] | solubility (physchem; pH 6.8, aqueous buffer) [mg/mL] | solubility (physchem; water) [mg/mL] | water content (K.F. moisture %) ([3]; 95% RH, Post 1 Week, listed as Example 2) [%] | SMILES |
| --- | --- | --- | --- | --- | --- | --- | --- | --- | --- | --- | --- | --- | --- | --- |
| little change in content | no significant content changes | 0.10 | 0.09 | 0.15 | 0.17 | 0.10 | no hygroscopicity |  |  |  |  |  |  | CCOC(=O)C1=C(COCCN)NC(C)=C(C(=O)OC)C1c1ccccc1Cl.O=C(O)CCCCC(=O)O (racemic) [C. Ex. 2, crystalline racemic amlodipine adipic acid salt anhydrous, reference compound] |
| little change in content | no significant content changes | 7.55 | 7.6 | 7.85 | 7.9 | 7.8 | high in water content from the beginning | turned yellow from white |  |  |  |  |  | CCOC(=O)C1=C(COCCN)NC(C)=C(C(=O)OC)[C@@H]1c1ccccc1Cl.CCOC(=O)C1=C(COCCN)NC(C)=C(C(=O)OC)[C@@H]1c1ccccc1Cl.O.O.O.O.O.O=S(=O)(O)c1ccccc1.O=S(=O)(O)c1ccccc1 [C. Ex. 1, S-(−)-amlodipine besylate 2.5 hydrate, reference compound] |
| little change in content | no significant content changes | 0.15 | 0.15 | 0.14 | 0.16 | 0.15 | no hygroscopicity |  | 81.7 | 57.1 | 41.3 | 18.6 |  | CCOC(=O)C1=C(COCCN)NC(C)=C(C(=O)OC)[C@@H]1c1ccccc1Cl [Ex. 1, crystalline S-(−)-amlodipine adipic acid salt anhydrous] |
|  |  | 0.8 | 0.9 | 1.3 | 1.62 | 0.7 |  |  |  |  |  |  | 1.62 | CCOC(=O)C1=C(COCCN)NC(C)=C(C(=O)OC)[C@@H]1c1ccccc1Cl [Ex. 2, hygroscopic crystalline S-(−)-amlodipine adipic acid salt anhydrous] |
